The target in assay [1] is T1, recombinant human ALK5 (TGF-βR1) protein (Homo sapiens, UniProt P36897).
T1 construct: purchased Life Technologies PR9075A
T1 sequence (P36897 34-503): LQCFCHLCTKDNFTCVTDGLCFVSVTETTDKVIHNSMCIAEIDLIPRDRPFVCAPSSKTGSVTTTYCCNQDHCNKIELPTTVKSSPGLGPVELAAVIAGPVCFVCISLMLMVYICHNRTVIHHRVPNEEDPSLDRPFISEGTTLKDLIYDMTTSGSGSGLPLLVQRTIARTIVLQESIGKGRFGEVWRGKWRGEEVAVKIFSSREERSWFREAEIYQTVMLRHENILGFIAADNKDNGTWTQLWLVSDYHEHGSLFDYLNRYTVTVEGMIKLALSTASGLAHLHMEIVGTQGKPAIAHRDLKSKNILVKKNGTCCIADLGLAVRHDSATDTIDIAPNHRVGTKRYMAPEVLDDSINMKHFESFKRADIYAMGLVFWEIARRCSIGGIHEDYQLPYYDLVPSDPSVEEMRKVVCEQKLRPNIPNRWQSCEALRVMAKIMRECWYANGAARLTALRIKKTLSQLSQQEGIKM
As to the kind of experiment: Biochemical ALK5 (TGF-βR1) assay to measure pKi (LANCE Ultra ULight kinase assay). The settings on record: apparent pKi from pIC50 by Cheng-Prusoff, read-out: ALK5 pKi (converted). The procedure:
The assays were performed in a 384-well plate (24 columns×16 wells/rows). An Echo® 550 Liquid Handler (Labcyte) was used to prepare various intermediate concentrations of compounds of the present disclosure in 100% DMSO. From the intermediate concentrations, a range of concentrations (from 10 μM to 25 pM corresponding to volumes up to 105 nL) were prepared and ejected into a final assay plate to be used to create individual dose response curves for each of the subject compounds. To a separate column within the assay plate, 105 nL of DMSO in each well was used to establish a maximum assay signal.
With a multidrop dispenser, 8 μL of enzyme mixture (1.25× final) was added to each well. […] The plate was then sealed with an adhesive seal and allowed to equilibrate for 60 minutes at room temperature.
Next, 2 μL of 125 μM ATP (5× final, 125 μM ATP prepared in assay buffer with 2 mM DTT) was added to the incubated mixtures, covered with a MicroClime® Environmental Lid (Product No. LLS-0310, Labcyte) and immediately transferred to 37° C. The reactions were allowed to proceed at 37° C. for 60 minutes before terminating with the addition of 10 μL of detection antibody (LANCE® (lanthanide chelate excite) Ultra Europium-anti-phospo-DNA Topoisomerase 2-alpha (Thr1342)) in detection mixture (12 mM EDTA, 4 nM detection antibody prepared in detection buffer (50 mM Tris-HCl, 150 mM NaCl, 0.5% BSA (Fraction V), pH 7.0)) at room temperature. The plate was then read on a Perkin Elmer EnVision Plate Reader using europium specific reader settings with excitation and emission wavelengths set to 320 or 340 nm and 665 nm, respectively.
For dose-response analyses, percent inhibition versus compound concentrations were plotted, and pIC50 values were determined from a 4-parameter robust fit model with GraphPad Prism V5 Software (GraphPad Software, Inc., La Jolla, Calif.). This model obtains pIC50 values by fitting the sigmoidal dose-response (variable slope) equation to the data. Results were expressed as pIC50 (negative logarithm of IC50) and subsequently converted to pKi (negative logarithm of dissociate constant, K) using the Cheng-Prusoff equation. The higher the value of pKi (lower value of Ki), the greater the inhibition of ALK5 activity.
In general terms: TR-FRET usually uses a lanthanide donor and a delayed reading to cut background.

Assay [2] has as its system TGF-β-stimulated SMAD3 phosphorylation in BEAS-2B cells. As to the kind of experiment: Cellular ALK5 potency assay, inhibition of TGF-β stimulated pSMAD3 formation in BEAS-2B cells. Type of assay: cell-based. Conditions: Homo sapiens; inhibition of TGF-β stimulated pSMAD3 formation, BEAS-2B cells; read-out: BEAS2B pIC50 (converted). As for the experimental part: The potency of compounds of the present disclosure for inhibition of TGF-β-stimulated SMAD3 phosphorylation was measured in BEAS-2B cells, a human lung epithelial cell line. TGF-β signals through activin receptor-like kinase 5 (ALK5) immediately prior to SMAD3 phosphorylation.
BEAS-2B cells were grown using 50% DMEM (Life Technologies) and 50% F-12 (Life Technologies) media, supplemented with 10% Fetal Bovine Serum (ATCC), 25 mM HEPES (Life Technologies), and 1× Pen-Strep (Life Technologies). Cells were cultured in a humidified incubator set at 37° C., 5% CO2, and trypsonized using 0.25% Trypsin with 0.5% polyvinylpyrrolidone (PVP).
For the assay, BEAS-2B cells were seeded at 7,500 cells/well (25 μL/well) in a 384-well plate and cultured overnight. Before dosing, growth media was aspirated and the wells were rinsed with HBSS Buffer (HBSS with Calcium and Magnesium, Life Technologies) supplemented with 25 mM HEPES (Life Technologies) and 1% Bovine Serum Albumin (Roche). Compounds were serially diluted in DMSO, then further diluted with supplemented HBSS Buffer (50 μL/well) to create a compound plate 3× of the final assay concentration, at 0.3% DMSO. The diluted compounds were then added to the cells (8 μL/well) and incubated at 37° C., 5% CO2 for 1 hour. After the compound incubation, TGF-β (R&D Systems) reconstituted in supplemented HBSS Buffer was added to the cells ([…], final concentration 10 ng/mL) and incubated for a further 30 minutes, after which the cells were immediately lysed with AlphaLISA lysis buffer (PerkinElmer). AlphaLISA Acceptor and Detector beads (PerkinElmer) were added 2 hours apart, then incubated overnight to be read the next day. The potency of the compound was determined through analysis of dose-dependent quantified changes in pSMAD3 signal from baseline (non-compound treated TGF-β stimulated cells). Data are expressed as pIC50 (negative decadic logarithm IC50) values.

SMILES strings stand for the structures.

As to `Cc1cccc(-c2[nH]cnc2-c2ccc3ncc(Nc4ccc(N5CCN(Cc6ccccc6)CC5)cn4)cc3c2)n1` [Compound 510, N-[5-(4-benzylpiperazin-1-yl)-2-pyridyl]-6-[5-(6-methyl-2-pyridyl)-1H-imidazol-4-yl]quinolin-3-amine], in assay [1], the Ki is 0.398 to 3.16 nM. Also, the IC50 in assay [2] is 25.1 to 158 nM.

As to `CC(=O)N[C@H]1CC=C(c2cnc3ccc(-c4nc[nH]c4-c4cccc(C)n4)cc3c2)CC1` [Compound 691, N-[(1R)-4-[6-[5-(6-methyl-2-pyridyl)-1H-imidazol-4-yl]-3-quinolyl]cyclohex-3-en-1-yl]acetamide], in assay [1], the Ki was below 0.0316 nM. Besides, the IC50 in assay [2] was below 20 nM.

Take `Cc1nc(-c2n[nH]cc2-c2ccc3ncc(-c4nnn5c4NCCC5)cc3n2)ccc1F` [Compound 263, 2-[3-(5-fluoro-6-methyl-2-pyridyl)-1H-pyrazol-4-yl]-7-(4,5,6,7-tetrahydrotriazolo[1,5-a]pyrimidin-3-yl)-1,5-naphthyridine]: the Ki in assay [1] was 0.0398 to 0.316 nM. Further, the IC50 in assay [2] is 25.1 to 158 nM.

For the compound `Cc1cccc(-c2[nH]cnc2-c2ccc3ncc(-c4ccc(C(=O)O)nc4)cc3c2)n1` [Compound 541, 5-(6-(5-(6-methylpyridin-2-yl)-1H-imidazol-4-yl)quinolin-3-yl)picolinic Acid], the Ki in assay [1] is below 0.0316 nM. The IC50 in assay [2] is 1580 to 10000 nM.

With `Cc1cccc(-c2nnn(C)c2-c2ccc3ncc(N4CCC(N(C)C)C4)cc3c2)n1` (racemic) [Compound 25, rac-(3S)-N,N-dimethyl-1-[6-[3-methyl-5-(6-methyl-2-pyridyl)triazol-4-yl]-3-quinolyl]pyrrolidin-3-amine], the Ki in assay [1] was 0.0398 to 0.316 nM. Also, in assay [2], the IC50 is 25.1 to 158 nM.

For `Cc1cccc(-c2n[nH]cc2-c2ccc3ncc(-c4c(C)nn5c4NCCC5)cc3n2)n1` [Compound 212, 2-[3-(6-methyl-2-pyridyl)-1H-pyrazol-4-yl]-7-(2-methyl-4,5,6,7-tetrahydropyrazolo[1,5-a]pyrimidin-3-yl)-1,5-naphthyridine], the Ki in assay [1] was 0.398 to 3.16 nM. Besides, in assay [2], the IC50 was 25.1 to 158 nM.

Take `Cc1nc(-c2n[nH]cc2-c2ccc3ncc(-c4cnn(CC5CC(N)C5)c4)cc3n2)ccc1F` (stereo not drawn) [Compound 455, 3-[[4-[6-[3-(5-fluoro-6-methyl-2-pyridyl)-1H-pyrazol-4-yl]-1,5-naphthyridin-3-yl]pyrazol-1-yl]methyl]cyclobutanamine]: the Ki in assay [1] is 0.0398 to 0.316 nM. Also, in assay [2], the IC50 was 25.1 to 158 nM.

On to `Cc1cccc(-c2[nH]cnc2-c2ccc3ncc(-c4cccc(C(=O)O)n4)cc3c2)n1` [Compound 1041, 6-[6-[5-(6-methyl-2-pyridyl)-1H-imidazol-4-yl]-3-quinolyl]pyridine-2-carboxylic acid], for which, in assay [1], the Ki is 0.0398 to 0.316 nM. The IC50 in assay [2] was 1580 to 10000 nM.

Consider `Cc1cccc(-c2n[nH]cc2-c2ccc3ncc(-c4cn(-c5ccccn5)nn4)cc3n2)n1` [Compound 680, 2-[3-(6-methyl-2-pyridyl)-1H-pyrazol-4-yl]-7-[1-(2-pyridyl)triazol-4-yl]-1,5-naphthyridine], for which the Ki in assay [1] was 0.398 to 3.16 nM. In addition, the IC50 in assay [2] was 200 to 1260 nM.

On to `Cc1cccc(-c2n[nH]cc2-c2ccc3ncc(NCC(=O)N4CCOCC4)cc3n2)n1` [Compound 90, 2-[[6-[3-(6-methyl-2-pyridyl)-1H-pyrazol-4-yl]-1,5-naphthyridin-3-yl]amino]-1-morpholino-ethanone], for which the Ki in assay [1] is 0.398 to 3.16 nM. In assay [2], the IC50 was 25.1 to 158 nM.

Take `Cc1cccc(-c2[nH]ncc2-c2ccc3nccc(C(=O)OC[C@H]4CC[C@@H](N)CC4)c3c2)n1` [Compound 1130, (4-aminocyclohexyl)methyl 6-[5-(6-methyl-2-pyridyl)-1H-pyrazol-4-yl]quinoline-4-carboxylate]: the Ki in assay [1] is 0.398 to 3.16 nM. Also, the IC50 in assay [2] is 25.1 to 158 nM.

As for `Cc1cccc(-c2[nH]cnc2-c2ccc3ncc(C(=O)O[C@H]4CCCC[C@H]4N)cc3c2)n1` [Compound 882, (1S,2R)-2-aminocyclohexyl 6-(5-(6-methylpyridin-2-yl)-1H-imidazol-4-yl)quinoline-3-carboxylate], the Ki in assay [1] was 3.98 to 31.6 nM. For the same compound, the IC50 in assay [2] is 25.1 to 158 nM.

For the compound `Cc1cccc(-c2[nH]ncc2-c2ccc3nccc(C(=O)O[C@H]4CC[C@@H](N)CC4)c3c2)n1` [Compound 1199, (4-aminocyclohexyl) 6-[5-(6-methyl-2-pyridyl)-1H-pyrazol-4-yl]quinoline-4-carboxylate], the Ki in assay [1] is 3.98 to 31.6 nM. The IC50 in assay [2] is 200 to 1260 nM.

`Cc1cccc(-c2n[nH]cc2-c2ccc3ncc(-c4nc(C(F)(F)F)n5c4CNCC5)cc3n2)n1` [Compound 465, 2-[3-(6-methyl-2-pyridyl)-1H-pyrazol-4-yl]-7-[3-(trifluoromethyl)-5,6,7,8-tetrahydroimidazo[1,5-a]pyrazin-1-yl]-1,5-naphthyridine]: the Ki in assay [1] is 0.0398 to 0.316 nM. Also, the IC50 in assay [2] was 25.1 to 158 nM.

Turning to `Cc1nc(-c2n[nH]cc2-c2ccc3ncc(-c4nc5n(n4)CCNC5)cc3n2)ccc1F` [Compound 176, 2-[3-(5-fluoro-6-methyl-2-pyridyl)-1H-pyrazol-4-yl]-7-(5,6,7,8-tetrahydro-[1,2,4]triazolo[1,5-a]pyrazin-2-yl)-1,5-naphthyridine], the Ki in assay [1] is 0.0398 to 0.316 nM. For the same compound, the IC50 in assay [2] is 25.1 to 158 nM.

As for `Cc1cccc(-c2[nH]cnc2-c2ccc3ncc(NCCN4CCCC4(C)C)cc3c2)n1` [Compound 56, N-[2-(2,2-dimethylpyrrolidin-1-yl)ethyl]-6-[5-(6-methyl-2-pyridyl)-1H-imidazol-4-yl]quinolin-3-amine], the Ki in assay [1] was below 0.0316 nM. In assay [2], the IC50 was 25.1 to 158 nM.

On to `Cc1cccc(-c2n[nH]cc2-c2ccc3nccc(C(=O)NCCCCC(NC(=O)CN)C(=O)O)c3n2)n1` (racemic) [Compound 805, rac-(2S)-2-[(2-aminoacetyl)amino]-6-[[6-[3-(6-methyl-2-pyridyl)-1H-pyrazol-4-yl]-1,5-naphthyridine-4-carbonyl]amino]hexanoic acid], for which the Ki in assay [1] was 0.398 to 3.16 nM. For the same compound, the IC50 in assay [2] was 1580 to 10000 nM.

In the case of `Cc1cccc(-c2n[nH]cc2-c2ccc3nccc(NC(=O)CN4CCN(C(C)C)CC4)c3n2)n1` [Compound 839, 2-(4-isopropylpiperazin-1-yl)-N-[6-[3-(6-methyl-2-pyridyl)-1H-pyrazol-4-yl]-1,5-naphthyridin-4-yl]acetamide], the Ki in assay [1] is 0.398 to 3.16 nM. The IC50 in assay [2] was 25.1 to 158 nM.

For the origin of these results see US11590116B2 (THERAVANCE BIOPHARMA R&D IP, LLC, priority 2019, dated 2023).
